One may read the pKi as the negative decadic logarithm of the Ki, by convention in mol/L.

pKi: −log10 of the molar value. Like-named read-outs stand apart in the source and are kept apart here.

The text below walks through data of patent publication US20070129419A1, “Serotonin transporter (SERT) inhibitors for the treatment of depression and anxiety” (priority 2005, published 2007).

Test [1] concerns the target T1, recombinant human SERT (Homo sapiens, UniProt P31645).
T1 construct: expressed in transfected cells; membrane preparation
In words: hSERT SPA binding assay ([3H]citalopram displacement, HEK-293 membranes). The conditions noted are these: for Ki: [3H]citalopram 1 nM, HEK-293 membranes expressing human SERT, read-out: pKi hSERT (converted). The protocol:
HEK-293 cells stably expressing recombinant human SERT are maintained with DMEM high glucose with 10% FBS, 300 μg/ml G418 and 2 mM L-Glutamine and incubated at 37° C. with 5% CO2. Cells are released from culture flasks using PBS for 1-2 min. The cells are subsequently centrifuged at 1000 g's for 5 min and resuspended in PBS prior to being used in the membrane preparation.
Cells are homogenized using a Polytron in 50 mM Tris (pH 7.4). Centrifuged at 48,000×g for 15 min, and the pellet resuspended in fresh buffer. After a second centrifugation, the pellet is re-homogenized and resuspended in fresh buffer. Typically, membrane portions are aliquoted in 3 mg/ml (w:v). and stored at −80° C.
A serial dilution of test compounds in 50 mM Tris-HCl, 120 mM NaCl, KCl 5 mM (pH 7.4) is made in a white Optiplate (Packard) (100 μl/well) and the radioligand ^3[H] Citalopram (Specific activity: 60-86 Ci/mmol, Final concentration: 1 nM) is added at 50 μl/well. Membrane and beads are prepared to a ratio of 5 μg:0.6 mg, with 0.6 mg PVT-WGA Amersham beads (Cat#RPQ0282V) added per well. 50 μl of the membrane/bead mixture is added to the assay plate for a final volume of 200 μl. The mixtures are allowed to stand at room temperature for one hour, and are then counted on a Packard TopCount.
The % inhibition is calculated for each compound tested (with 100% binding being the value obtained with the incubation of membrane/beads and radioligand in buffer without compound minus the non-specific binding measured in presence of 10 μM Fluoxetine). The concentration producing 50% inhibition (IC50) is determined using an iterative non-linear curve fitting technique. The inhibition dissociation constant (Ki) of each compound is determined according to the method of Cheng-Prusoff, decribed in Biochem. Pharmacol., 1973, 22(23), pages 3099-3108.

Test [2] concerns the target T2, human NK-1 receptor (Homo sapiens, UniProt P25103).
T2 construct: expressed in transfected cells; host or cells: CHO cells, Semliki virus expression system; membrane suspension
Description: hNK-1 binding assay ([3H]substance P displacement, CHO cells). The conditions noted are these: [3H]substance P 0.6 nM, CHO cells transfected with human NK-1 receptor; read-out: pKi hNK1 (converted). The protocol:
The affinity of test compounds for the NK-1 receptor was evaluated at human NK-1 receptors in CHO cells transfected with the human NK-1 receptor using the Semliki virus expression system and radiolabelled with [^3H]substance P (final concentration 0.6 nM). Binding assays were performed in HEPES buffer (50 mM, pH 7.4) containing BSA (0.04%) leupeptin (8 μg/ml), MnCl2 (3 mM) and phosphoramidon (2 μM). Binding assays consisted of 250 μl of membrane suspension (1.25×10^5 cells/assay tube), 125 μl of buffer of displacing agent and 125 μl of [^3H]substance P. Displacement curves were determined with at least ten concentrations of the compound. The assay tubes were incubated for 60 min at room temperature after which time the tube contents were rapidly filtered under vacuum through GF/C filters presoaked for 60 min with PEI (0.3%) with 2×2 ml washes of HEPES buffer (50 mM, pH 7.4). The radioactivity retained on the filters was measured by scintillation counting. All assays were performed in duplicate in at least 2 separate experiments.
The inhibition dissociation constant (Ki) of each compound for NK1 is determined as described above for hSERT.

T1 sequence (P31645 whole entry): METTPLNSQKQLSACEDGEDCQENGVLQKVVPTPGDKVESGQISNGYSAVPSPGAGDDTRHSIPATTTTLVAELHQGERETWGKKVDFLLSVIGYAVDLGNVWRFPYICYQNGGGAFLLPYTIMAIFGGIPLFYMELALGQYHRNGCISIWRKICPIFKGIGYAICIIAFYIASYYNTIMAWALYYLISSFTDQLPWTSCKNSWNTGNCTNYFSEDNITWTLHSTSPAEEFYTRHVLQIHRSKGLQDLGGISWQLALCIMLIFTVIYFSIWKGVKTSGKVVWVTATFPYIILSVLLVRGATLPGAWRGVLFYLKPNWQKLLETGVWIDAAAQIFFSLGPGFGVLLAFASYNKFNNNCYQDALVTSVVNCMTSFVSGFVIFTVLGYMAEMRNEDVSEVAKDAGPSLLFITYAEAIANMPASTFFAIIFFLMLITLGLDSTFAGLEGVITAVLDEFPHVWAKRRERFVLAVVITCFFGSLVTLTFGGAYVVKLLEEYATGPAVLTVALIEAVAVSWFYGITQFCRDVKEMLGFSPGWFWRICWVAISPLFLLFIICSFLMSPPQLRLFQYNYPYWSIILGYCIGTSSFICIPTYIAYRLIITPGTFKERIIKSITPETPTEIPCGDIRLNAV
T2 sequence (P25103 whole entry): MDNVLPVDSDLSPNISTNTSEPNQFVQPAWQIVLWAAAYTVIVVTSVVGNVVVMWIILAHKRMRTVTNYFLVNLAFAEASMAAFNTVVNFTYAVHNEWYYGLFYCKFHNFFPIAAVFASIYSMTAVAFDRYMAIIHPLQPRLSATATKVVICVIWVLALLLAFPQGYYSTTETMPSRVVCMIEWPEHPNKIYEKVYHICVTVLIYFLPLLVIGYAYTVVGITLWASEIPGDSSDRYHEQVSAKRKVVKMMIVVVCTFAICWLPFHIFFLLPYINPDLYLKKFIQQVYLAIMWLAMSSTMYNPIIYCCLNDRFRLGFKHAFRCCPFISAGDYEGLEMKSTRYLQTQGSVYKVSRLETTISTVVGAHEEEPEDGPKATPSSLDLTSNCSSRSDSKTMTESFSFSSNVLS

Consider `Fc1ccc([C@@H]2CNC[C@@H]2COCc2cc(C(F)(F)F)cc(C(F)(F)F)c2)cc1` [1 of I], for which, in test [1], the pKi is 8.56. For the same compound, the Ki in test [2] was 0.295 µM.

On to `Fc1cccc([C@@H]2CNC[C@@H]2COCc2cc(C(F)(F)F)cc(C(F)(F)F)c2)c1` [2 of I], for which the results for the Ki in test [1] and in test [2] were 0.00589 µM and 0.0468 µM, respectively.

`Fc1ccccc1[C@@H]1CNC[C@@H]1COCc1cc(C(F)(F)F)cc(C(F)(F)F)c1` [3 of I]: the results for the Ki in test [1] and in test [2] were 0.00347 µM and 0.0501 µM, respectively.

In the case of `FC(F)(F)c1cc(COC[C@H]2CNC[C@H]2c2ccc(Cl)cc2)cc(C(F)(F)F)c1` [4 of I], the Ki is 0.00447 µM in test [1] and 0.0537 µM in test [2].

As for `FC(F)(F)c1cc(COC[C@H]2CNC[C@H]2c2cccc(Cl)c2)cc(C(F)(F)F)c1` [5 of I], the Ki was 0.00813 µM in test [1] and 0.0316 µM in test [2].

Regarding `FC(F)(F)c1cc(COC[C@H]2CNC[C@H]2c2ccccc2Cl)cc(C(F)(F)F)c1` [6 of I], the Ki is 0.0102 µM in test [1] and 0.0437 µM in test [2].

On to `Cc1ccccc1[C@@H]1CNC[C@@H]1COCc1cc(C(F)(F)F)cc(C(F)(F)F)c1` [7 of I], for which the Ki was 0.00759 µM in test [1] and 0.0288 µM in test [2].

For `FC(F)(F)c1cc(COC[C@H]2CNC[C@H]2c2ccccc2)cc(C(F)(F)F)c1` [8 of I], the Ki in test [1] was 0.0049 µM; in test [2] it was 0.0437 µM.

Turning to `Brc1cc(Br)cc(COC[C@H]2CNCC2c2ccccc2)c1` (stereo partly shown) [9 of I], the Ki in test [1] was 0.00589 µM; in test [2] it was 0.0417 µM.

`Cc1cc(C)cc(COC[C@H]2CNC[C@H]2c2ccccc2)c1` [10 of I]: the Ki in test [1] was 0.00457 µM; in test [2], 0.257 µM.

For `Fc1cc(COC[C@H]2CNC[C@H]2c2ccccc2)cc(C(F)(F)F)c1` [11 of I], the Ki in test [1] was 0.00575 µM; in test [2], 0.224 µM.

Consider `FC(F)(F)c1cccc(COC[C@H]2CNC[C@H]2c2ccccc2)c1` [12 of I], for which the Ki is 0.011 µM in test [1] and 0.676 µM in test [2].

Consider `FC(F)(F)Oc1cccc(COC[C@H]2CNC[C@H]2c2ccccc2)c1` [13 of I], for which the values for the Ki in test [1] and in test [2] were 0.0138 µM and 0.759 µM, respectively.

`COc1cc(COC[C@H]2CNC[C@H]2c2ccccc2)cc(OC)c1` [14 of I]: the Ki was 0.0204 µM in test [1] and 0.741 µM in test [2].

As to `FC(F)(F)c1ccccc1COC[C@H]1CNC[C@H]1c1ccccc1` [15 of I], the Ki in test [1] is 0.0708 µM; in test [2] it was 0.646 µM.

With `FC(F)(F)c1cc(CNC[C@H]2CNC[C@H]2c2ccccc2)cc(C(F)(F)F)c1` [16 of I], the Ki was 0.0229 µM in test [1] and 0.0263 µM in test [2].

With `CN(Cc1cc(C(F)(F)F)cc(C(F)(F)F)c1)C[C@H]1CNC[C@H]1c1ccccc1` [17 of I], the Ki in test [1] was 0.00813 µM; in test [2], 0.0316 µM.
